Molecules are shown by their SMILES.

The nature of the first series: log P (HPLC/MS data of the preparation examples). The following applies: LC-MS, method [b]: pH 2.7 with 0.1% formic acid in water and acetonitrile, linear gradient 10% to 95% acetonitrile.
Take `Cc1cc(C(F)(F)F)nn1CC(=O)Nc1cccc(CON=C(c2ccccc2)c2nccn2C)n1` [Example 279]: the log p is 2.61^[b].

Regarding `Cn1ccnc1C(=NOCc1cccc(NC(=O)COc2ccccc2)n1)c1ccccc1` [Example 280], the log p is 2.58^[b].

Take `Cn1ccnc1C(=NOCc1cccc(NC(=O)CCC2CCCC2)n1)c1ccccc1` [Example 281]: the log p is 3.19^[b].

As to `Cn1ccnc1C(=NOCc1cccc(NC(=O)CCC2CCCCC2)n1)c1ccccc1` [Example 282], the log p is 3.67^[b].

`Cn1ccnc1C(=NOCc1cccc(NC(=O)CSc2ccccc2)n1)c1ccccc1` [Example 283]: the log p is 2.63^[b].

Take `Cn1ccnc1C(=NOCc1cccc(NC(=O)CCC2CCCC2)n1)c1cccc(F)c1` [Example 284]: the log p is 3.44^[b].

For `Cn1ccnc1C(=NOCc1cccc(NC(=O)CCC2CCCCC2)n1)c1cccc(F)c1` [Example 285], the log p was 3.92^[b].

Take `Cn1ccnc1C(=NOCc1cccc(NC(=O)CSc2ccccc2)n1)c1cccc(F)c1` [Example 286]: the log p is 2.82^[b].

Take `CSCCC(=O)Nc1cccc(CON=C(c2cccc(F)c2)c2nccn2C)n1` [Example 287]: the log p is 2.07^[b].

As for `CCC(C)CC(=O)Nc1cccc(CON=C(c2cccc(F)c2)c2nccn2C)n1` (stereo not shown) [Example 288], the log p is 2.77^[b].

The series is the same for the next values; noted with them: method [b]: LC-MS at pH 2.7, 0.1% formic acid in water / acetonitrile, linear gradient 10% to 95% acetonitrile.
Regarding `Cn1ncnc1C(=NOCc1cccc(NC(=O)Cc2cccc(F)c2)n1)c1ccccc1` [Example 235], the log p is 3.15^[b].

Take `COCCC(=O)Nc1cccc(CON=C(c2ccccc2)c2ncnn2C)n1` [Example 237]: the log p was 2.17^[b].

As for `Cn1ncnc1C(=NOCc1cccc(NC(=O)CCc2cccc(Cl)c2)n1)c1ccccc1` [Example 238], the log p was 3.73^[b].

`Cn1ncnc1C(=NOCc1cccc(NC(=O)CCc2cccc(C(F)(F)F)c2)n1)c1ccccc1` [Example 239]: the log p is 3.87^[b].

For `CC(C(=O)Nc1cccc(CON=C(c2ccccc2)c2ncnn2C)n1)c1ccccc1` (stereo not shown) [Example 240], the log p is 3.42^[b].

In the case of `Cn1ncnc1C(=NOCc1cccc(NC(=O)Cc2cc(F)cc(F)c2)n1)c1ccccc1` [Example 241], the log p is 3.33^[b].

Consider `Cn1ncnc1C(=NOCc1cccc(NC(=O)Cc2ccc(Cl)cc2)n1)c1ccccc1` [Example 242], for which the log p is 3.46^[b].

On to `Cn1ncnc1C(=NOCc1cccc(NC(=O)Cc2ccccc2Cl)n1)c1ccccc1` [Example 243], for which the log p is 3.31^[b].

For `Cn1ncnc1C(=NOCc1cccc(NC(=O)Cc2cccc(C(F)(F)F)c2)n1)c1ccccc1` [Example 244], the log p was 3.64^[b].

For the molecule `Cn1ncnc1C(=NOCc1cccc(NC(=O)Cc2ccccc2C(F)(F)F)n1)c1ccccc1` [Example 245], the log p was 3.51^[b].

As for `COc1ccc(CC(=O)Nc2cccc(CON=C(c3ccccc3)c3ncnn3C)n2)cc1` [Example 246], the log p was 3.02^[b].

For `COc1cccc(CC(=O)Nc2cccc(CON=C(c3ccccc3)c3ncnn3C)n2)c1` [Example 247], the log p was 3.06^[b].

As to `Cn1ncnc1C(=NOCc1cccc(NC(=O)C2CCCCC2)n1)c1ccccc1` [Example 248], the log p was 3.39^[b].

With `Cn1ncnc1C(=NOCc1cccc(NC(=O)CCCc2ccccc2)n1)c1ccccc1` [Example 249], the log p is 3.6^[b].

For the molecule `Cn1ncnc1C(=NOCc1cccc(NC(=O)CSc2ccccc2)n1)c1ccccc1` [Example 250], the log p is 3.33^[b].

Turning to `Cn1ncnc1C(=NOCc1cccc(NC(=O)C2CCCCO2)n1)c1ccccc1` (stereo not shown) [Example 251], the log p is 3.15^[b].

As to `CCc1ccc(C(=O)Nc2cccc(CON=C(c3ccccc3)c3ncnn3C)n2)cc1` [Example 252], the log p is 3.73^[b].

`CCCCCOC(=O)Nc1cccc(CON=C(c2ccccc2)c2cncn2C)n1` [Example 253]: the log p was 2.39^[b].

On to `CCCCCCCCCC(=O)Nc1cccc(CON=C(c2ccccc2)c2cncn2C)n1` [Example 254], for which the log p is 3.09^[b].

Consider `Cn1cncc1C(=NOCc1cccc(NC(=O)COc2ccccc2)n1)c1ccccc1` [Example 255], for which the log p is 2.04^[b].

Turning to `CCCC(=O)Nc1cccc(CON=C(c2ccccc2)c2cncn2C)n1` [Example 256], the log p is 1.6^[b].

With `CCCCC(=O)Nc1cccc(CON=C(c2ccccc2)c2cncn2C)n1` [Example 258], the log p was 1.82^[b].

Turning to `CCC(C(=O)Nc1cccc(CON=C(c2ccccc2)c2cncn2C)n1)c1ccccc1` (stereo not shown) [Example 259], the log p was 2.3^[b].

Take `Cn1c(C(=NOCc2nccc(N(C(=O)C3CC3)C(=O)C3CC3)n2)c2ccccc2)cnc1C(=O)C1CC1` [Example 260]: the log p is 3.73^[b].

Turning to `CCCc1ccc(C(=O)Nc2cccc(CON=C(c3ccccc3)c3ncnn3C)n2)cc1` [Example 261], the log p was 4.24^[b].

With `CCC(C)CC(=O)Nc1cccc(CON=C(c2ccccc2)c2nccn2C)n1` (stereo not shown) [Example 262], the log p was 2.54^[b].

On to `CCCC(C)C(=O)Nc1cccc(CON=C(c2ccccc2)c2nccn2C)n1` (stereo not shown) [Example 263], for which the log p was 2.54^[b].

With `Cn1ccnc1C(=NOCc1cccc(NC(=O)Cc2cccs2)n1)c1ccccc1` [Example 264], the log p is 2.23^[b].

With `Cn1ccnc1C(=NOCc1cccc(NC(=O)Cc2ccccc2Cl)n1)c1ccccc1` [Example 265], the log p is 2.61^[b].

`COc1ccc(CC(=O)Nc2cccc(CON=C(c3ccccc3)c3nccn3C)n2)cc1` [Example 266]: the log p is 2.33^[b].

As to `COc1cccc(CC(=O)Nc2cccc(CON=C(c3ccccc3)c3nccn3C)n2)c1` [Example 267], the log p is 2.37^[b].

On to `COc1ccccc1CC(=O)Nc1cccc(CON=C(c2ccccc2)c2nccn2C)n1` [Example 268], for which the log p was 2.47^[b].

Take `Cn1ccnc1C(=NOCc1cccc(NC(=O)Cc2ccccc2F)n1)c1ccccc1` [Example 269]: the log p was 2.4^[b].

With `COCCC(=O)Nc1cccc(CON=C(c2ccccc2)c2nccn2C)n1` [Example 270], the log p is 4.53^[b].

`CSCCC(=O)Nc1cccc(CON=C(c2ccccc2)c2nccn2C)n1` [Example 271]: the log p is 1.9^[b].

In the case of `Cn1ccnc1C(=NOCc1cccc(NC(=O)OCCF)n1)c1ccccc1` [Example 272], the log p was 1.81^[b].

Take `COc1ccc(CC(=O)Nc2cccc(CON=C(c3cccc(F)c3)c3nccn3C)n2)cc1` [Example 273]: the log p is 2.54^[b].

Consider `COc1cccc(CC(=O)Nc2cccc(CON=C(c3cccc(F)c3)c3nccn3C)n2)c1` [Example 274], for which the log p was 2.58^[b].

In the case of `COc1ccccc1CC(=O)Nc1cccc(CON=C(c2cccc(F)c2)c2nccn2C)n1` [Example 275], the log p is 2.66^[b].

For `Cn1ccnc1C(=NOCc1cccc(NC(=O)Cc2ccccc2F)n1)c1cccc(F)c1` [Example 276], the log p was 2.59^[b].

For the molecule `COCCC(=O)Nc1cccc(CON=C(c2cccc(F)c2)c2nccn2C)n1` [Example 277], the log p was 1.69^[b].

For the molecule `CC(C(=O)Nc1cccc(CON=C(c2cccc(F)c2)c2nccn2C)n1)c1ccccc1` (stereo not shown) [Example 278], the log p was 2.92^[b].

The record behind these values is US8981111B2 (priority 2008, dated 2015).
